In patent publication US7183260B2, “C-terminal modified oxamyl dipeptides as inhibitors of the ICE/ced-3 family of cysteine proteases” (Idun Pharmaceuticals, Inc., priority 1998, dated 2007):

Assays:
Type in all cases: biochemical
Details in all cases: continuous assay 60 min, reaction initiated by adding enzyme to substrate-inhibitor mixture
mICE = target: T1, mICE (Mus musculus, UniProt P29452); test: Dissociation constant Ki and irreversible rate constant k3 for irreversible inhibitors (ICE)
T1 sequence (P29452 123-296 limits assumed): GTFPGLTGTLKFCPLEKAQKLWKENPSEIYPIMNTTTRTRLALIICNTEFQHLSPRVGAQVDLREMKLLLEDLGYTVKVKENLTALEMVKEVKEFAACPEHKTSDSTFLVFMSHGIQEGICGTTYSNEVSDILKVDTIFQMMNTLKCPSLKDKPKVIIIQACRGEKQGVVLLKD
T1 sequence (P29452 315-402 limits assumed): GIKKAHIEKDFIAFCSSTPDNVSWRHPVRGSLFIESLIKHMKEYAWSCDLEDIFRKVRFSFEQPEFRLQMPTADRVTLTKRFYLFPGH

CPP32 = target: T2, CPP32 (Homo sapiens, UniProt P42574); test: Dissociation constant Ki and irreversible rate constant k3 for irreversible inhibitors (CPP32)
T2 sequence (P42574 29-175 limits assumed): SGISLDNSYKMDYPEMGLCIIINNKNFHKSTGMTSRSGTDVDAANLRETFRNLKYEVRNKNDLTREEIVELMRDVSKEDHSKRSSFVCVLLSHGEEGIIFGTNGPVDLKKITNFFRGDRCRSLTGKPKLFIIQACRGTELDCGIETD
T2 sequence (P42574 176-277 limits assumed): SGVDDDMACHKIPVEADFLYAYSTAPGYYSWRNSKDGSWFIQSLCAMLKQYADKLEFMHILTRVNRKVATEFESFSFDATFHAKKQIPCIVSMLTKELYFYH

MCH-5 = MCH-5 (Homo sapiens, UniProt Q14790); test: Dissociation constant Ki and irreversible rate constant k3 for irreversible inhibitors (Mch5)
MCH-5, sequence (Q14790 217-374 limits assumed, species assumed): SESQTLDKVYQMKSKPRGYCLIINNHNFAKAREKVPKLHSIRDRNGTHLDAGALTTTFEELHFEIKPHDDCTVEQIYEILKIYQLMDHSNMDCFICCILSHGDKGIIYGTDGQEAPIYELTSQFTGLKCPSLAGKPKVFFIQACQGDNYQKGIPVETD
MCH-5, sequence (Q14790 385-479 limits assumed, species assumed): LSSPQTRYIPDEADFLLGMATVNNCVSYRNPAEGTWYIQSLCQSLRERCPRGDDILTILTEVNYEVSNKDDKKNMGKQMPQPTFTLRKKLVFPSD

MCH-2 = target: T3, MCH-2 (Homo sapiens, UniProt P55212); test: Dissociation constant Ki and irreversible rate constant k3 for irreversible inhibitors (Mch2)
T3 sequence (P55212 24-179 limits assumed): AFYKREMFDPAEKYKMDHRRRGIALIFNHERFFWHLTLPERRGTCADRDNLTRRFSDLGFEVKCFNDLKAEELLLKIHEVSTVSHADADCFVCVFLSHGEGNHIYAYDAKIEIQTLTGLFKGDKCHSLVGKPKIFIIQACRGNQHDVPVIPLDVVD
T3 sequence (P55212 194-293 limits assumed): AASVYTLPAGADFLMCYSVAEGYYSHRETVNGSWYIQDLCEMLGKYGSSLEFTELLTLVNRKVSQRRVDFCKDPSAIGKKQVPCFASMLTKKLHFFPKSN

## C[C@H](NC(=O)C(=O)Nc1cc(C(F)(F)F)ccc1N1CCOCC1)C(=O)N[C@@H](CC(=O)O)C(=O)COP(=O)(c1ccccc1)c1ccccc1 [Example 45]
mICE
  Ki: 0.019 µM
  mICE k3/Ki: 369,000 moles^−1 seconds^−1
CPP32
  CPP32 k3/Ki: 100,000 moles^−1 seconds^−1
  Ki: 0.112 µM
MCH-5
  Ki: 0.008 µM
  MCH-5 k3/Ki: 441,000 moles^−1 seconds^−1
MCH-2
  Ki: 0.019 µM
  MCH-2 k3/Ki: 98,500 moles^−1 seconds^−1

## C[C@H](NC(=O)C(=O)Nc1ccccc1C(C)(C)C)C(=O)N[C@@H](CC(=O)O)C(=O)COC(=O)c1c(Cl)cccc1Cl [Example 37]
mICE
  Ki: 0.465 µM
  mICE k3/Ki: 43,300 moles^−1 seconds^−1
CPP32
  CPP32 k3/Ki: 142,000 moles^−1 seconds^−1
  Ki: 0.078 µM
MCH-5
  Ki: 0.083 µM
  MCH-5 k3/Ki: 39,100 moles^−1 seconds^−1
MCH-2
  Ki: 0.013 µM
  MCH-2 k3/Ki: 191,000 moles^−1 seconds^−1

## CC(C)[C@H](NC(=O)C(=O)Nc1cccc2ccccc12)C(=O)N[C@@H](CC(=O)O)C(=O)COc1c(F)cc(F)cc1F [Example 6]
mICE
  Ki: 0.0088 µM
CPP32
  Ki: 0.039 µM
MCH-5
  Ki: 0.0053 µM
MCH-2
  Ki: 0.042 µM

## CC(C)[C@H](NC(=O)C(=O)Nc1ccccc1F)C(=O)N[C@@H](CC(=O)O)C(=O)COc1c(F)c(F)cc(F)c1F [Example 90]
mICE
  Ki: 0.147 µM
  mICE k3/Ki: 58,500 moles^−1 seconds^−1
CPP32
  CPP32 k3/Ki: 5,560 moles^−1 seconds^−1
  Ki: 2.27 µM
MCH-5
  Ki: 0.04 µM
  MCH-5 k3/Ki: 49,600 moles^−1 seconds^−1
MCH-2
  Ki: 0.221 µM
  MCH-2 k3/Ki: 11,200 moles^−1 seconds^−1

## C[C@H](NC(=O)C(=O)Nc1cccc2c1CCCC2)C(=O)N[C@@H](CC(=O)O)C(=O)COP(=O)(c1ccccc1)c1ccccc1 [Example 48]
mICE
  Ki: 0.011 µM
  mICE k3/Ki: 905,000 moles^−1 seconds^−1
CPP32
  CPP32 k3/Ki: 139,000 moles^−1 seconds^−1
  Ki: 0.069 µM
MCH-5
  Ki: 0.0041 µM
  MCH-5 k3/Ki: 1,150,000 moles^−1 seconds^−1
MCH-2
  Ki: 0.022 µM
  MCH-2 k3/Ki: 132,000 moles^−1 seconds^−1

## C[C@H](NC(=O)C(=O)Nc1ccccc1I)C(=O)N[C@@H](CC(=O)O)C(=O)COP(=O)(c1ccccc1)c1ccccc1 [Example 74]
mICE
  Ki: 0.303 µM
  mICE k3/Ki: 36,300 moles^−1 seconds^−1
CPP32
  CPP32 k3/Ki: 78,300 moles^−1 seconds^−1
  Ki: 0.161 µM
MCH-5
  Ki: 0.07 µM
  MCH-5 k3/Ki: 46,300 moles^−1 seconds^−1
MCH-2
  Ki: 0.078 µM
  MCH-2 k3/Ki: 66,200 moles^−1 seconds^−1

## CC(C)[C@H](NC(=O)C(=O)NC(c1ccccc1)c1ccccc1)C(=O)N[C@@H](CC(=O)O)C(=O)COc1c(F)c(F)cc(F)c1F [Example 81]
mICE
  Ki: 0.054 µM
  mICE k3/Ki: 201,000 moles^−1 seconds^−1
CPP32
  CPP32 k3/Ki: 5,380 moles^−1 seconds^−1
  Ki: 0.882 µM
MCH-5
  Ki: 0.036 µM
  MCH-5 k3/Ki: 48,600 moles^−1 seconds^−1
MCH-2
  Ki: 1.15 µM
  MCH-2 k3/Ki: 1,430 moles^−1 seconds^−1

## C[C@H](NC(=O)C(=O)Nc1ccccc1C(C)(C)C)C(=O)N[C@@H](CC(=O)O)C(=O)COP(=O)(c1ccccc1)c1ccccc1 [Example 32]
mICE
  Ki: 0.098 µM
  mICE k3/Ki: 159,000 moles^−1 seconds^−1
CPP32
  CPP32 k3/Ki: 327,000 moles^−1 seconds^−1
  Ki: 0.034 µM
MCH-5
  Ki: 0.01 µM
  MCH-5 k3/Ki: 282,000 moles^−1 seconds^−1
MCH-2
  Ki: 0.016 µM
  MCH-2 k3/Ki: 275,000 moles^−1 seconds^−1

## CC(C)[C@H](NC(=O)C(=O)Nc1cccc2ccccc12)C(=O)N[C@@H](CC(=O)O)C(=O)COC(=O)c1c(Cl)cccc1Cl [Example 4]
mICE
  Ki: 0.0061 µM
CPP32
  Ki: 0.014 µM
MCH-5
  Ki: 0.004 µM
MCH-2
  Ki: 0.009 µM

## CC(C)[C@H](NC(=O)C(=O)Nc1ccccc1-c1ccccc1)C(=O)N[C@@H](CC(=O)O)C(=O)COc1c(F)c(F)cc(F)c1F [Example 83]
mICE
  Ki: 0.135 µM
  mICE k3/Ki: 127,000 moles^−1 seconds^−1
CPP32
  CPP32 k3/Ki: 25,400 moles^−1 seconds^−1
  Ki: 0.251 µM
MCH-5
  Ki: 0.03 µM
  MCH-5 k3/Ki: 65,300 moles^−1 seconds^−1
MCH-2
  Ki: 0.085 µM
  MCH-2 k3/Ki: 31,700 moles^−1 seconds^−1

## C[C@H](NC(=O)C(=O)NCc1cccc2ccccc12)C(=O)N[C@@H](CC(=O)O)C(=O)COC(=O)c1c(Cl)cccc1Cl [Example 34]
mICE
  Ki: 0.0099 µM
  mICE k3/Ki: 1,160,000 moles^−1 seconds^−1
CPP32
  CPP32 k3/Ki: 187,000 moles^−1 seconds^−1
  Ki: 0.043 µM
MCH-5
  Ki: 0.0042 µM
  MCH-5 k3/Ki: 936,000 moles^−1 seconds^−1
MCH-2
  Ki: 0.011 µM
  MCH-2 k3/Ki: 214,000 moles^−1 seconds^−1

## C[C@H](NC(=O)C(=O)NCc1ccccc1)C(=O)N[C@@H](CC(=O)O)C(=O)COc1c(F)c(F)cc(F)c1F [Example 51]
mICE
  Ki: 1.01 µM
  mICE k3/Ki: 13,900 moles^−1 seconds^−1
CPP32
  CPP32 k3/Ki: 54,300 moles^−1 seconds^−1
  Ki: 0.37 µM
MCH-5
  Ki: 0.083 µM
  MCH-5 k3/Ki: 23,100 moles^−1 seconds^−1
MCH-2
  Ki: 0.07 µM
  MCH-2 k3/Ki: 42,800 moles^−1 seconds^−1

## C[C@H](NC(=O)C(=O)Nc1cc(C(F)(F)F)ccc1N1CCCC1)C(=O)N[C@@H](CC(=O)O)C(=O)COP(=O)(c1ccccc1)c1ccccc1 [Example 46]
mICE
  Ki: 0.0053 µM
  mICE k3/Ki: 1,503,000 moles^−1 seconds^−1
CPP32
  CPP32 k3/Ki: 78,600 moles^−1 seconds^−1
  Ki: 0.052 µM
MCH-5
  Ki: 0.0044 µM
  MCH-5 k3/Ki: 933,000 moles^−1 seconds^−1
MCH-2
  Ki: 0.0073 µM
  MCH-2 k3/Ki: 202,000 moles^−1 seconds^−1

## CC(C)[C@H](NC(=O)C(=O)Nc1cc(C(C)(C)C)ccc1C(C)(C)C)C(=O)N[C@@H](CC(=O)O)C(=O)COc1c(F)c(F)cc(F)c1F [Example 109]
mICE
  Ki: 0.025 µM
  mICE k3/Ki: 767,000 moles^−1 seconds^−1
CPP32
  CPP32 k3/Ki: 70,600 moles^−1 seconds^−1
  Ki: 0.193 µM
MCH-5
  Ki: 0.034 µM
  MCH-5 k3/Ki: 51,300 moles^−1 seconds^−1
MCH-2
  Ki: 0.232 µM
  MCH-2 k3/Ki: 8,230 moles^−1 seconds^−1

## CC(C)[C@H](NC(=O)C(=O)Nc1ccccc1)C(=O)N[C@@H](CC(=O)O)C(=O)COc1c(F)c(F)cc(F)c1F [Example 82]
mICE
  Ki: 0.007 µM
  mICE k3/Ki: 1,490,000 moles^−1 seconds^−1
CPP32
  CPP32 k3/Ki: 36,000 moles^−1 seconds^−1
  Ki: 0.389 µM
MCH-5
  Ki: 0.005 µM
  MCH-5 k3/Ki: 598,000 moles^−1 seconds^−1
MCH-2
  Ki: 0.1 µM
  MCH-2 k3/Ki: 25,500 moles^−1 seconds^−1

## C[C@H](NC(=O)C(=O)NCc1cccc2ccccc12)C(=O)N[C@@H](CC(=O)O)C(=O)COc1c(F)c(F)cc(F)c1F [Example 33]
mICE
  Ki: 0.0056 µM
  mICE k3/Ki: 2,590,000 moles^−1 seconds^−1
CPP32
  CPP32 k3/Ki: 158,000 moles^−1 seconds^−1
  Ki: 0.061 µM
MCH-5
  Ki: 0.0097 µM
  MCH-5 k3/Ki: 1,260,000 moles^−1 seconds^−1
MCH-2
  Ki: 0.016 µM
  MCH-2 k3/Ki: 335,000 moles^−1 seconds^−1

## C[C@H](NC(=O)C(=O)Nc1cccc2c1CCCC2)C(=O)N[C@@H](CC(=O)O)C(=O)COC(=O)c1c(Cl)cccc1Cl [Example 62]
mICE
  Ki: 1.02 µM
  mICE k3/Ki: 16,900 moles^−1 seconds^−1
CPP32
  CPP32 k3/Ki: 149,000 moles^−1 seconds^−1
  Ki: 0.101 µM
MCH-5
  Ki: 0.09 µM
  MCH-5 k3/Ki: 21,200 moles^−1 seconds^−1
MCH-2
  Ki: 0.023 µM
  MCH-2 k3/Ki: 126,000 moles^−1 seconds^−1

## C[C@H](NC(=O)C(=O)Nc1cccc2c1CCCC2)C(=O)N[C@@H](CC(=O)O)C(=O)COP(=O)(c1ccccc1)c1ccccc1 [Example 61]
mICE
  Ki: 0.023 µM
  mICE k3/Ki: 315,000 moles^−1 seconds^−1
CPP32
  CPP32 k3/Ki: 157,000 moles^−1 seconds^−1
  Ki: 0.069 µM
MCH-5
  Ki: 0.038 µM
  MCH-5 k3/Ki: 71,800 moles^−1 seconds^−1
MCH-2
  Ki: 0.019 µM
  MCH-2 k3/Ki: 120,000 moles^−1 seconds^−1
